≈ marks a conversion by molar mass, not a printed value. Where “and” joins values, the source holds several entries; their conditions need not be identical. Equal entries are not always repeated. Where two headings read alike, the source gives them in different places.
Legend:
[1] = test system: P. falciparum 3D7 parasites (Pf3D7); assay: 72 h SYBR Green growth inhibition, ABS P. falciparum 3D7 (Phillips Lab); type: cell-based, Plasmodium falciparum; conditions: Plasmodium falciparum, 3D7; 72 h SYBR Green assay; mean ± SEM (n)
[2] = test system: P. falciparum Dd2 (PfDd2) parasites; assay: 72 h SYBR Green growth inhibition, ABS P. falciparum Dd2 (Phillips Lab); type: cell-based, Plasmodium falciparum; conditions: Plasmodium falciparum, DD2, 72 h, read-out: PfDd2 EC50
[3] = test system: Dd2 PfATP4^P412L mutant clones; assay: 72 h SYBR Green growth inhibition, 2-selected Dd2 clones with PfATP4 P412L (Phillips Lab); type: cell-based, Plasmodium falciparum; conditions: for EC50: Plasmodium falciparum
Protocol: (§1) To confirm the MOA for the α-azacyclic acetamides against P. falciparum and to obtain potential information about whether or not they bind PfATP4 at an overlapping site with that of KAE609, we undertook resistance selections using PfDd2 parasites using the published cycling drug selection method. , α-Azacyclic acetamides 2 and 3 were chosen as representative examples of the pyrrole- and indole-based series, respectively. […] Additional cycles were performed at 20 × EC50, until resistant parasites were detected based on a fold change in EC50 compared to the parental clonal Dd2 line (Table S3). Resistant parasites were detected in the 2-selections in all 4 flasks after 4 pulses and for 3-selections in 3 flasks after 5 pulses. Clonal lines were generated from each flask, and one clone per flask was selected for WGS and EC50 determination (Tables S4 and S5). WGS analysis identified two single point mutations in PfATP4 that were not present in the original clonal Dd2 parasite line (Tables and S4). P412L was found in three of four flasks containing 2-selected resistance clones, and F917L was identified in all three flasks containing 3-selected clones and in the fourth flask containing 2-selected clones (Table S4). PfATP4 mutations identified by the WGS analysis in parasite lines were verified by PCR of the pfatp4 gene, followed by Sanger sequencing (Figures S5, S6 and Table S6). An additional protein coding gene (ribosomal protein S8e) was mutated in the 2-selections. However, this mutation was identified in only one of four sequenced clones and is therefore unlikely to be related to resistance to 2 (Figure S7). All three resistant clones derived from the 3-selections harbored an identical mutation in a gene (pfcpu) encoding a conserved protein of unknown function, which was absent in the parental line (Figure S8).
(§2) ABS P. falciparum 3D7, Dd2 or PfNF54^luc parasites (BEI resources) were cultured in RPMI 1640 medium (Millipore Sigma), supplemented with 25 mM HEPES, 0.5% Albumax-I (Thermo Scientific), 23 mM sodium bicarbonate, 92 μM hypoxanthine, and 10 μg/mL gentamicin sulfate at 37 °C, 5% CO2, using deidentified O^+ red blood cells (BioIVT) as previously described. − Growth inhibition assays were conducted in 96 well plate format using the SYBR Green or luciferase reporter assay depending on the strain with modifications as described , (see Supporting Information for a detailed description). Details for the luciferase reporter assay are described below under the BRRoK assay section.
(§3) EC50 and CC50 values were determined by nonlinear regression performed in GraphPad Prism Version 10. Unless otherwise specified, data were fitted to the log(inhibitor) vs response–variable slope with four parameters equation. […] For mutant cell lines and compound combinations where bottom plateau of zero growth was not reached, the bottom of the curve was defined at 0% based on background values obtained for parental Dd2 from the same study.
(§4) Resistant Dd2 parasites were selected using a high-pressure intermittent selection protocol using a previously described method. Selections were set up using 4 flasks per compound starting with approximately 3 × 10^9 parasites per flask (80 mL per flask, 4% hematocrit, 3% parasitemia at the beginning of each pulse, mostly ring-stage parasites via previous sorbitol synchronization. Pulse 1 and 2 (48 h) were conducted at 10xEC50, and subsequent pulses were conducted at 20xEC50. Parasites cleared within 48 h under these conditions. 3-Selections used a total of 4 pulses, while 2-selections required 5 pulses before resistant parasites emerged (Table S3). Culture media was replenished daily for a week after each pulse, then every 2 days with weekly replenishment of blood. Cultures were monitored by microscopy until recrudescence. Clonal parasites were obtained from each flask by limiting dilution and maintained in drug free RPMI-1640 media prior to being analyzed for EC50 shifts. […]

[4] = test system: Dd2 PfATP4^F917L mutant clones; assay: 72 h SYBR Green growth inhibition, 2- or 3-selected Dd2 clones with PfATP4 F917L (Phillips Lab); type: cell-based, Plasmodium falciparum; conditions: for EC50: Plasmodium falciparum
Protocol: as §1, §2, §3, §4

[5] = test system: Dd2-B2 (PfATP4^WT); assay: Drug susceptibility assay for cross-resistance profiling (Fidock Lab), parental line; type: cell-based, Plasmodium falciparum; conditions: for EC50: Plasmodium falciparum
[6] = test system: Dd2^L350H (PfATP4^L350H); assay: Drug susceptibility assay for cross-resistance profiling (Fidock Lab), L350H; type: cell-based, Plasmodium falciparum; conditions: Table 3 data set
[7] = test system: Dd2^P412L (PfATP4^P412L); assay: Drug susceptibility assay for cross-resistance profiling (Fidock Lab), P412L; type: cell-based, Plasmodium falciparum; conditions: Table 3 data set
[8] = test system: isolated Pf3D7 trophozoites, [Na+]cyt; assay: Measurement of P. falciparum cytosolic Na+ concentration (SBFI); type: cell-based, Plasmodium falciparum; conditions: 50 nM
Protocol: Measurements were carried out in 96 well plates (excitation wavelengths: 340 and 380 nm; emission wavelength: 515 nm), as described previously. Fluorescence ratio values (340 nm/380 nm) were converted to [Na^+]cyt using a calibration procedure in which parasites were suspended in solutions of varying [Na^+] containing ionophores.

[9] = test system: Pf3D7 trophozoite-stage parasites, cytosolic pH (pHcyt); cell-based assay for ATP4 inhibition; assay: P. falciparum cytosolic dose response pH assay (BCECF, with concanamycin A); conditions: for EC50: Plasmodium falciparum, read-out: Pf3D7 pH EC50
[10] = test system: P. falciparum NF54^luc parasites; assay: 72 h SYBR Green growth inhibition, PfNF54^luc; type: cell-based; conditions: Plasmodium falciparum, 72 h SYBR Green assay, read-out: PfNF54^luc EC50
[11] = test system: P. falciparum NF54^luc parasites; assay: Luciferase reporter (LR) / BRRoK assay, PfNF54^luc; type: cell-based, Plasmodium falciparum; conditions: Plasmodium falciparum, NF54, Hec50; luciferase reporter, 6 h
[12] = test system: PfD10 attB; assay: 72 h SYBR Green growth inhibition, PfD10 attB; type: cell-based; conditions: Plasmodium falciparum; 72 h SYBR Green assay
[13] = test system: PfD10 attB + yDHODH; assay: 72 h SYBR Green growth inhibition, strain expressing yeast DHODH; type: cell-based; conditions: Plasmodium falciparum, read-out: PfD10 attB + yDHODH EC50, 72 h SYBR Green assay
[14] = Human HepG2 cytotoxicity assay (CellTiter Glo); type: cell-based; conditions: HepG2 cells
[15] = in vitro; type: in vitro ADME; conditions: human liver microsomes, 1 µM compound, 0.4 mg/mL protein
[16] = test system: P. falciparum NF54^luc parasites; assay: Luciferase reporter (LR) / BRRoK assay, PfNF54^luc; type: cell-based; conditions: Plasmodium falciparum, NF54, Hec50, 72 h
[17] = physchem; conditions: kinetic from dmso stock
[18] = DD2, read-out: EC50, 2-resistant Flask 2 Clone F9
[19] = DD2, read-out: EC50, 2-resistant Flask 3 Clone F5
[20] = DD2, read-out: EC50, 2-resistant Flask 4 Clone E10
[21] = DD2, read-out: EC50, 2-selected flask #3 clone F5
[22] = DD2, read-out: EC50, 2-resistant Flask 1 Clone B6
[23] = DD2, read-out: EC50, 3-resistant Flask 2 Clone D10
[24] = DD2, read-out: EC50, 3-resistant Flask 3 Clone D8
[25] = DD2, read-out: EC50, 3-resistant Flask 4 Clone B3
[26] = DD2, read-out: EC50, 3-selected flask #3 clone D8
[27] = Plasmodium falciparum, DD2, 15-selected line

Row | SMILES | EC50 [1] [nM] | EC50 [2] [nM] | EC50 [3, 18] [nM] | EC50 [3, 19] [nM] | EC50 [3, 20] [nM] | EC50 [3, 21] [nM] | Fold EC50 change compared to WT Dd2, 2-selected flask #3 clone F5 [3] [fold] | EC50 [4, 22] [nM] | EC50 [4, 23] [nM] | EC50 [4, 24] [nM] | EC50 [4, 25] [nM] | EC50 [4, 26] [nM] | Fold EC50 change compared to WT Dd2, 3-selected flask #3 clone D8 [4] [fold] | EC50 [9] [nM] | also measured
1 | C[C@H]1Cc2c([nH]c3cc(Cl)c(F)cc23)[C@@]2(N1)C(=O)Nc1ccc(Cl)cc12 [KAE609, cipargamin, reference compound] | 1 ± 0.038 | 1.2 ± 0.087 | 14 ± 1.4 | 12 ± 1.4 | 14 ± 1.1 | 13 ± 1.1 | 11 | 12 ± 0.98 | 12 ± 0.34 | 12 ± 0.97 | 14 ± 0.9 | 12 ± 0.58 | 11 | 3 ± 2.1 | EC50 ([5]; DD2, 72 h, read-out: EC50, Dd2-B2): 1.3 ± 0.1 nM; EC50 ([5]; DD2, read-out: EC50, Dd2-B2): 2.1 nM; Fold change, Dd2-B2 ([5]; parent, Table S8): 1 fold; EC50 [6, 27]: 4.8 ± 0.3 nM; EC50 fold-change vs Dd2-B2, Dd2^L350H [6]: 3.7 fold and 4- to 6 fold; EC50 [7, 27]: 11 ± 0.7 nM; EC50 fold-change vs Dd2-B2, Dd2^P412L [7]: 8.5 fold; increase in [Na+]cyt (in words) [8]: increase in [Na^+]cyt; difference between pH EC50 and growth inhibition EC50 ([9]; Pf3D7, 72 h SYBR Green vs pH assay): ≤ 3.2 fold; effect on parasite cytosolic pH (pHcyt) in presence of CMA (in words) ([9]; Pf3D7, CMA 50 nM): increase in pHcyt
2 | COc1ccc(Cl)cc1NC(=O)Cn1cccc1-c1nnc(C2CC2)o1 [compound 1, N-(5-chloro-2-methoxyphenyl)-2-(2-(5-cyclopropyl-1,3,4-oxadiazol-2-yl)-1H-pyrrol-1-yl)acetamide] | 2500 ± 260 | 2400 ± 130 | 7500 ± 2400 | 7600 ± 2000 | 9400 ± 2500 | 8300 ± 1100 | 3.4 | > 10000 | > 10000 | > 10000 | > 10000 | 12000 ± 460 | 4.6 | 4500 ± 2000 | EC50 [10]: 3000 ± 930 nM; EC50 [11]: 3200 ± 16 nM; EC50 [12]: 2900 nM; EC50 [13]: 3200 nM; CC50 at 96 h [14]: > 50000 nM; microsomal CLint [15]: 279 µL/min/mg; EC50 [16]: 1600 ± 75 nM; solubility ([17]; pH 2, simulated gastric fluid): 25 µM (≈ 9.32 µg/mL); solubility ([17]; pH 6.5, aqueous buffer): 12.5 µM (≈ 4.66 µg/mL)
